Experimental data from patent publication US6630489B1, “Quinoline derivatives as tyrosine kinase inhibitors” (Astrazeneca AB, priority 1999, dated 2003).

Columns and labels:
p56^lck enzyme = molecular target: T1, p56^lck enzyme (Homo sapiens, UniProt P06239); test: In vitro enzyme assay, Test (a): inhibition of p56lck phosphorylation of a tyrosine-containing polypeptide substrate (Elisa); format: biochemical; settings: inhibition of phosphorylation by p56lck
T1 construct: fused on or other part: N-terminal 6-His tag
Experimental: (a) In vitro Enzyme Assay
The ability of test compounds to inhibit phosphorylation by the enzyme p56^lck of a tyrosine-containing polypeptide substrate was assessed using a conventional Elisa assay.
The following conventional procedure was used to obtain p56^lck enzyme. An EcoR1/Not1 fragment containing the entire coding sequence of p56^lck was generated by the technique of polymerase chain reaction (PCR) from Incyte clone No. 2829606. A 6-His tag was added to the sequence at the N-terminus during the PCR stage. Conventional sequence analysis identified a number of changes compared to the published sequence and these were found also to have been present in the original Incyte template. To achieve expression of the enzyme, the PCR fragment was inserted downstream of the polyhedrin promotor of pFASTBAC1 (Life Technologies Limited, Paisley, UK, Catalogue No. 10360-014). A recombinant Baculovirus was constructed using the Bac-to-Bac system (Life Technologies Limited). High Five insect cells (Invitrogen BV, PO Box 2312, 9704 CH Groningen, The Netherlands, Catalogue No. B855-02) were infected with the recombinant Baculovirus at a multiplicity of infection of 1 and incubated for 48 hours. The cells were harvested. […]

[1] = test system: human peripheral blood mononuclear cells (T cell proliferation); test: In vitro T cell proliferation assay, Test (b)(ii): non T cell receptor stimulation (PMA and Ionomycin); format: cell-based; settings: human PBMC, stimulation with PMA and Ionomycin, tritiated thymidine
Experimental: (§1) (b) In vitro T Cell Proliferation Assays
(§2) The ability of test compounds to inhibit T cell proliferation was assessed by using human peripheral blood mononuclear cells and stimulation of the T cells by way of the T cell receptor or other than by way of the T cell receptor.
(§3) Peripheral blood mononuclear cells (PBMC) were isolated from heparinised (10 units/ml heparin) human blood by density centrifugation (Lymphoprep™; Nycomed) spinning initially at 2000 rpm at ambient temperature for 20 minutes. Cells at the interphase were transferred to clean tubes, diluted 1:1 with RPMI 1640 medium (Gibco) and spun at 2000 rpm at ambient temperature for 10 minutes. The cell pellet was resuspended in RPMI 1640 medium and spun at 1400 rpm at ambient temperature for 10 minutes. The cell pellet was resuspended in RPMI 1640 medium and spun at 900 rpm at ambient temperature for 10 minutes to remove platelets. […]
(§4) The extent of inhibition of T cell proliferation at a range of concentrations of each test compound was determined and an IC50 value was calculated. […]
Aliquots (50 μl) of a mixture of the cell stimulants PMA (phorbol-12-myristate-13-acetate, Sigma Catalogue No. P8139; 40 ng/ml) and Ionomycin (Sigma Catalogue No. I0684; 1.2 μM) were added to each well and the cells were incubated and analysed as described in paragraph (b)(i).

[2] = test system: human peripheral blood mononuclear cells (T cell proliferation); test: In vitro T cell proliferation assay, Test (b)(i): T cell receptor stimulation (anti-CD3 antibody); format: cell-based; settings: human PBMC, T cell receptor stimulation with anti-CD3 antibody, tritiated thymidine
Experimental: as §1, §2
as §3, with “minutes.” for “minutes. The cell pellet was resuspended in RPMI 1640 medium and spun at 900 rpm at ambient temperature for 10 minutes to remove platelets.”
as §4
Aliquots (50 μl) of the T cell receptor stimulatory anti-CD3 antibody (Pharmingen Catalogue No. 30100D; 40 ng/ml in assay medium) were added to each well and the cells were incubated for 24 hours at 37° C. in a humidified (5%CO2/95% air) incubator. […] The cells were harvested onto a filter mat and radioactivity was counted using a Wallac 1450 Microbeta Plus liquid scintillation counter.

T1 sequence (P06239 whole entry, the tested form may be a part): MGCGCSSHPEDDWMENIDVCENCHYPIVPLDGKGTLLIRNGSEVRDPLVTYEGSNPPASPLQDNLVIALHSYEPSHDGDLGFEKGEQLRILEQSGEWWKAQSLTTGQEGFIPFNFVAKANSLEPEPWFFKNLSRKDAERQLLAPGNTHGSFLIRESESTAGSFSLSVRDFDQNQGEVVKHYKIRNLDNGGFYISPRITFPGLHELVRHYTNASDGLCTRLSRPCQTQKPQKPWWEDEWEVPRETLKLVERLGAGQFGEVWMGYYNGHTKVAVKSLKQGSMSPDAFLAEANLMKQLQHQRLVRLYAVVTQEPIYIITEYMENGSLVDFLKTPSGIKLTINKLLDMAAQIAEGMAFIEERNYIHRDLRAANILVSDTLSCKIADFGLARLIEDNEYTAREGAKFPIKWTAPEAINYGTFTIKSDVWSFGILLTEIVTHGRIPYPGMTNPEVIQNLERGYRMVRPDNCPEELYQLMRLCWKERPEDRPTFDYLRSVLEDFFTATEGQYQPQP

IC50 (p56^lck enzyme): ~30 nM
Compound: COc1cc2nccc(Oc3ccc(Cl)cc3F)c2cc1C(=O)NCCCN1CCOCC1 [Example 1, 4-(4-chloro-2-fluorophenoxy)-7-methoxy-N-(3-morpholinopropyl)quinoline-6-carboxamide]
IC50 [1]: ~18000 nM
IC50 [2]: ~700 nM
